# Reference: the RepoRT retention time repository
# Experiment: Agilent ZORBAX 300 SB-C18, 150 × 1 mm, 3.5 µm; A: water + 0.01% heptafluorobutyric acid; B: acetonitrile + 0.01% heptafluorobutyric acid; gradient (min/%B) 0/0 100/90
# Conditions: stereoisomer not certain
row,SMILES,LC retention time
1,Cc1ccncc1C,6.82 min
2,CNCc1cccs1,7 min
3,O=CN1CCCCC1,7.47 min
4,CCCCC[N+]1(C)CCCC1,7.4 min
5,O=C(O)C1CCCN1Cc1ccccc1 (centres undefined),6.6 min
6,O=C(O)Cc1c(C(=O)O)[nH]c2cc(C(=O)O)ccc12,7.47 min
7,NCCCCCCO,6.25 min
8,CN1CCC(NCc2cccnc2)CC1,7.19 min
9,COC(=O)c1[nH]c2ccccc2c1C(=O)OC,11.3 min
10,CCN(CC)C(=O)N1CCN(C)CC1,7.39 min
11,O=C(NN=Cc1cccnc1)c1ccccn1,7.9 min
12,NC(=O)NNC(=S)Nc1ccccc1,7.03 min
13,NC(=O)C(N)c1ccccc1 (centres undefined),6.56 min
14,CNC1C(OC2OC(CO)C(N)C(O)C2O)OC2CC(N)C(OC3C(N)CC(N)C(O)C3O)OC2C1O (centres undefined),8.39 min
15,CC1N(CCC(N)=O)c2ccccc2C1(C)C (centres undefined),11.8 min
16,CN(C)C(CN)c1ccco1 (centres undefined),7.02 min
17,c1cncc(-c2cccs2)c1,9.08 min
18,Nc1ccccc1CO,6.62 min
19,Nc1ccc2ncc(=O)[nH]c2c1,6.59 min
20,NC(=S)NC(N)=S,6.5 min
21,COc1ccc(C=CC(=O)C=Cc2ccc(OC)cc2OC)c(OC)c1,16.6 min

row,SMILES,LC retention time
1,CC1CC(O)(CC(O)(c2ccccc2)c2ccccc2)C(C)CN1C (centres undefined),10.2 min
2,Cc1ccncc1,6.26 min
3,Cc1cccc(C=NNC(=O)C[n+]2ccccc2)c1,9.09 min
4,CCCc1ccccc1N,9.54 min
5,CNCc1cccn1C,7.09 min
6,Cc1[nH]n(-c2ccccc2)c(=O)c1C=O,8.21 min
7,COc1ccc(NC(=O)Nc2ccc(OCC(=O)N3CCOCC3)cc2)cc1,10 min
8,NC(=O)CNc1ccc(C(N)=O)cc1,5.59 min
9,Cc1cn(-c2ccccc2)[nH]c1=O,10.8 min
10,CCCCCCCCCCCCCCCCN,16.7 min
11,CN(C)c1ccc(N=C2C=CC(=Nc3ccc(N(C)C)cc3)C=C2)cc1,9.47 min
12,CCOC(=O)C1CCC(=O)N1 (centres undefined),6.88 min
13,Cc1c(C(=O)O)[nH]c(=O)[nH]c1=O,1.56 min
14,Cc1cccc(CN2CCN(C(=O)CC(C)C)CC2)c1,9.36 min
15,Cc1[nH]c(=S)[nH]c1-c1ccccc1,9.06 min
16,Cc1ccc(CN2CCN(N=Cc3ccco3)CC2)cc1,9.55 min
17,Cc1[nH]c2ccccc2c1CCNC(=O)C1CCCCC1,13.6 min
18,O=C(O)CCCC(=O)Nc1ccccc1,8.72 min
19,O=C(c1ccccc1O)N1CCCC1,9.29 min
20,S=C1NCN(Cc2ccccc2)CN1,8.28 min
21,c1ccc(CCn2c(-c3ccccc3)csc2=Nc2ccccc2)cc1,13.8 min

row,SMILES,LC retention time
1,Cc1ccc(C(=O)C=Cc2ccco2)cc1,15.1 min
2,Cc1nccnc1C,7.59 min
3,CC(C)=CCN1CC2(C)c3cc(O)ccc3CC1C2C (centres undefined),10.3 min
4,NCC1CCNCC1,6.49 min
5,O=C1CCCN1c1ccc(O)cc1,7.71 min
6,O=C1NC2CCCCC2NC1CC(=O)N1CCN(Cc2ccccc2)CC1 (centres undefined),7.88 min
7,CN1CC(C(=O)O)CC1=O (centres undefined),3.04 min
8,OC(Cn1cccc1)c1ccccc1 (centres undefined),11.8 min
9,O=C(O)CNC(CO)(CO)CO,1.66 min
10,CCNc1cc(C)ccc1O,7.6 min
11,O=C(C(Cc1ccccc1)n1cccc1)N1CCCC1 (centres undefined),13.8 min
12,Cc1cccc(N)c1N,7.32 min
13,Nc1ccc2c(c1)COc1ccccc1O2,10.5 min
14,Cc1cc(=O)cc(C)n1C,6.83 min
15,CC(C)N(C)C,5.87 min
16,O=C(CCC1CCCC1)N1CCN(C(=O)COc2ccccc2)CC1,13.7 min
17,CCCCCCCNC(=O)c1ccc(OC(C)=O)cc1,14.9 min
18,O=c1cc[nH]cc1,4.89 min
19,Nc1cc(=O)[nH]c(=S)n1C1CCCC1,8.94 min
20,CN(C)CCCNC(=O)C(=O)NC1CC1,6.89 min
21,CCNCC,5.17 min

row,SMILES,LC retention time
1,c1cc(CCc2ccncc2)ccn1,7.28 min
2,CC(=O)Nc1cccc(C(C)=O)c1,8.35 min
3,CCCCCCCCCCCCC(N)=O,18.2 min
4,CN1CCN(C)CC1,6.13 min
5,Cc1c[n+](C)c(C)cc1-c1ccccc1,9.13 min
6,CCCCN1CNC(=S)N(CCc2ccccc2)C1,13.8 min
7,CNC(C)(C)Cc1ccccc1,8.99 min
8,Nc1ccc(C(=O)NC=C2CCCC2)cc1,7.87 min
9,CCN(CC)CCOc1ccccc1OC,8.83 min
10,CCCCCCCCCCCC(N)=O,16.7 min
11,CC(=O)NC(NC(C)=O)c1ccncc1,5.53 min
12,CCOC(=O)CNc1ccccc1,12.4 min
13,CCCCN1CCCCC1C(=O)Nc1c(C)cccc1C (centres undefined),10.5 min
14,CN1CCC23CCCCC2C1Cc1ccc(O)cc13 (centres undefined),9.18 min
15,NC(=O)C(O)c1ccccc1 (centres undefined),6.19 min
16,O=C(NCCNC(=O)c1ccccn1)c1ccccn1,8.71 min
17,NCC1CCCCC1,8.08 min
18,CCCCCCn1c2ccccc2c2cc(C(C)=O)ccc21,20 min
19,CCN(CCCc1ccccc1)CCCc1ccccc1,12.5 min
20,CCCCCCNC(=O)c1ccc(OC(C)=O)cc1,13.8 min
21,CCn1cc(CCC(=O)O)c2ccccc21,12.4 min

# Now from value to compound:
row,LC retention time,SMILES
1,14.3 min,CN(C)c1ccc(C=NNc2nc3ccccc3c(=O)n2-c2ccccc2)cc1
2,19.3 min,Cc1ccc(-c2noc(-c3ccc(C)cc3)c2C)cc1
3,12.5 min,CC(=O)c1c(C(C)=O)c(C)n(CCc2c[nH]c3ccccc23)c1C
4,8.66 min,NC(=O)CNC(=O)c1ccc2ccccc2n1
5,10.1 min,COc1ccc2c(=O)c(C)c(-c3ccccc3)oc2c1CN(C)C
6,15.8 min,O=C(NCCCn1c2ccccc2c2ccccc21)Nc1ccccc1
7,11.2 min,O=C(c1ccccc1)c1nc2ccccc2[nH]c1=O
8,10.4 min,Cn1c(=O)c2ccc(C(=O)Nc3ccc4ccccc4n3)cc2c(=O)n1C
9,10.9 min,CC(=Nc1ccc(N=Nc2ccccc2)cc1)N(C)C
10,13.3 min,Cc1cccc(C(=O)NNC(=O)c2ccccc2C(=O)c2ccccc2)c1
11,10.1 min,Oc1ccc(-c2cccc(-c3ccc(O)cc3)n2)cc1
12,12.6 min,Cc1cc(C)c2c(O)c(Cc3ccccc3)c(=O)[nH]c2c1
13,11.9 min,Cc1ccc(C(=O)NCCn2cccc2)cc1
14,13.3 min,Cc1ccc(-c2cc(C(=O)O)c3ccccc3n2)cc1C
15,10.4 min,COC(=O)c1ccc2ccccc2n1
16,10.9 min,Cc1nc2c(ccc3ccccc32)c(C)c1C
17,8.56 min,c1cncc(CNc2c3c(nc4ccccc24)CCC3)c1
18,13.1 min,O=C(CN1C(=O)c2ccccc2C1=O)Nc1ccccc1C(=O)N1CCN(c2ccccc2)CC1
19,9.51 min,CN(C)C(=O)c1ccc(N=CNc2ccc(C(=O)N(C)C)cc2)cc1
20,10.5 min,O=c1nc(N2CCOCC2)nc(N(c2ccccc2)c2ccccc2)[nH]1
21,12.4 min,Cc1[nH]c2ccccc2c1CCNC(=O)CN1C(=O)c2ccccc2C1=O
22,8.59 min,O=C(Nc1ccccn1)c1cccc(N2C(=O)CCC2=O)c1
23,16 min,CCOc1ccc(CCNC(=O)N(c2ccccc2)c2ccccc2)cc1OCC

row,LC retention time,SMILES
1,10.6 min,Cc1ccc(C(=O)Cn2c(=N)n(C)c3ccccc32)cc1
2,15.2 min,Cc1ccc(NC(=O)Cn2c(=O)c3c(C)cc(C)nc3n(-c3ccccc3)c2=O)c(C)c1
3,16.8 min,COC1N(c2ccccc2)N=C(c2ccccc2)N1c1ccccc1 (centres undefined)
4,16.8 min,CCCCCCCN1C(=O)c2ccccc2C1(O)Cc1ccccc1 (centres undefined)
5,10.1 min,c1cncc(-c2cc3ccccc3[nH]2)c1
6,11.4 min,c1ccc2c(c1)Cc1cc3ccccc3nc1-2
7,15.6 min,CCCCc1ccc(NC(=O)Cc2ccc(OC)c(OC)c2)cc1
8,7 min,Cc1cc(C(N)=O)c2ccccc2n1
9,14.4 min,O=C(C(=O)c1cccs1)c1ccccc1
10,15.7 min,O=C(NCCc1ccco1)c1cccc2c1oc1ccccc12
11,5.51 min,Cc1cc(C(=O)O)c2ccccc2n1
12,9.54 min,CCN(CC)c1cc(C)c2ccccc2n1
13,12 min,Cc1[nH]c2ccccc2c1CCNC(=O)C1CCCN1C(=O)Nc1ccccc1 (centres undefined)
14,10.4 min,Nc1cccc(-c2cc3ccccc3oc2=O)c1
15,18.4 min,Cc1ccc(N2C3=C(C(=O)CC(C)(C)C3)C(c3ccccc3)C3=C2c2ccccc2C3=O)cc1 (centres undefined)
16,13.1 min,Cc1cc(-c2noc(-c3ccco3)n2)c2ccccc2n1
17,7.88 min,Cc1ccc2ccc[n+](C)c2c1
18,12.2 min,O=C(NN=Cc1cccc(O)c1)c1cc2ccccc2cc1O
19,11 min,O=c1[nH]c(-c2ccccc2)nc2ccccc12
20,11.8 min,O=C(O)Cn1c(=O)c(-c2ccccc2)nc2ccccc21
21,8.88 min,Cc1ccc(C(=O)Nc2ccccc2C(=O)N2CCN(C)CC2)cc1
22,13 min,CC(=O)c1cccc(NC(=O)c2ccc(C)cc2)c1
